A short description of this experiment: Antagonist activity at H4R in human eosinophils assessed as inhibition of histamine-induced shape change by GAFS assay.

Structures are written as SMILES.

For `CN[C@@H]1CCN(c2cc(NCC3CC3)nc(N)n2)C1`, the concentration for half-maximal inhibition (IC50) (in general, the point on the concentration scale where inhibition reaches its midpoint) worked out at 0.65 nM.

These data come from BindingDB's records for doi:10.1016/j.bmcl.2011.07.125 (Pfizer, 2011).
